Experimental data taken from the supplement of paper PMC10307832.

What was measured:
Experiment in all cases: relative viability (nuclei count vs DMSO), 5 days (fraction); higher = more cells survive
Cediranib + Tozasertib = compound: COc1cc2c(Oc3ccc4[nH]c(C)cc4c3F)ncnc2cc1OCCCN1CCCC1 [Cediranib] + Cc1cc(Nc2cc(N3CCN(C)CC3)nc(Sc3ccc(NC(=O)C4CC4)cc3)n2)n[nH]1 [Tozasertib] (partner 0.1 µM)
How it was run: (§1)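 Relative viability equals treated-well nuclei counts divided by vehicle-well nuclei counts. Counts came from 4× images of lung cancer cell lines grown in 1536-well plates for 5 days after pin-tool dosing on the day after seeding. Dosing used one drug alone or a fixed anchor-drug dose plus five library-drug doses (not always all listed) in √10 steps, and values are medians of duplicate plates.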

Decitabine + OSI-027 = compound: Nc1ncn([C@H]2C[C@H](O)[C@@H](CO)O2)c(=O)n1 [Decitabine] + COc1cccc2cc(-c3nc([C@H]4CC[C@H](C(=O)O)CC4)n4ncnc(N)c34)[nH]c12 [OSI-027] (partner 0.5 µM)
How it was run: as §1

Cediranib + Navitoclax = compound: COc1cc2c(Oc3ccc4[nH]c(C)cc4c3F)ncnc2cc1OCCCN1CCCC1 [Cediranib] + CC1(C)CCC(c2ccc(Cl)cc2)=C(CN2CCN(c3ccc(C(=O)NS(=O)(=O)c4ccc(N[C@H](CCN5CCOCC5)CSc5ccccc5)c(S(=O)(=O)C(F)(F)F)c4)cc3)CC2)C1 [Navitoclax] (partner 0.5 µM)
How it was run: as §1

Halofuginone + AZD7762 = compound: O=C(C[C@H]1NCCC[C@@H]1O)Cn1cnc2cc(Br)c(Cl)cc2c1=O (racemic) [Halofuginone] + NC(=O)Nc1cc(-c2cccc(F)c2)sc1C(=O)N[C@H]1CCCNC1 [AZD7762] (partner 0.2 µM)
How it was run: as §1

Row | Cell Line | relative viability (Cediranib + Tozasertib; first compound 0.04 µM) | relative viability (Cediranib + Tozasertib; first compound 0.1265 µM) | relative viability (Cediranib + Tozasertib; first compound 0.4 µM) | relative viability (Cediranib + Tozasertib; first compound 1.265 µM) | relative viability (Cediranib + Tozasertib; first compound 4 µM) | relative viability (Decitabine + OSI-027; first compound 0.04 µM) | relative viability (Decitabine + OSI-027; first compound 0.1265 µM) | relative viability (Decitabine + OSI-027; first compound 0.4 µM) | relative viability (Decitabine + OSI-027; first compound 1.265 µM) | relative viability (Decitabine + OSI-027; first compound 4 µM) | relative viability (Cediranib + Navitoclax; first compound 0.04 µM) | relative viability (Cediranib + Navitoclax; first compound 0.1265 µM) | relative viability (Cediranib + Navitoclax; first compound 0.4 µM) | relative viability (Cediranib + Navitoclax; first compound 1.265 µM) | relative viability (Cediranib + Navitoclax; first compound 4 µM) | relative viability (Halofuginone + AZD7762; first compound 0.001 µM) | relative viability (Halofuginone + AZD7762; first compound 0.003162 µM) | relative viability (Halofuginone + AZD7762; first compound 0.01 µM) | relative viability (Halofuginone + AZD7762; first compound 0.03162 µM) | relative viability (Halofuginone + AZD7762; first compound 0.1 µM)
1 | NCI-H460 | 0.494 | 0.391 | 0.429 | 0.603 | 0.355 | 0.603 | 0.848 | 0.598 | 0.308 | 0.215 | 1.12 | 1.1 | 0.938 | 0.993 | 1.33 | 0.725 | 0.601 | 0.673 | 0.605 | 0.305
2 | NCI-H596 | 1.13 | 0.891 | 0.782 |  | 0.986 | 0.606 | 0.793 |  | 0.581 | 0.477 | 0.943 | 0.926 | 0.938 | 0.879 | 0.996 | 1.19 | 1.18 | 1.1 | 0.95 | 0.722
3 | NCI-H647 | 0.306 | 0.225 | 0.3 | 0.227 | 0.255 | 0.648 | 0.549 | 0.403 | 0.152 | 0.201 | 1.11 |  | 1.16 | 1.12 | 1.14 | 0.489 | 0.451 | 0.52 | 0.388 | 0.416
4 | NCI-H727 |  | 0.591 | 0.536 | 0.762 | 0.549 | 0.485 | 0.65 | 0.477 | 0.57 | 0.426 | 0.404 | 0.409 | 0.38 | 0.532 | 0.583 | 0.777 | 0.551 | 0.72 | 0.677 | 0.634
5 | NCI-H838 | 0.272 | 0.264 | 0.229 | 0.297 | 0.276 | 0.359 | 0.324 | 0.279 | 0.273 | 0.29 | 1.17 | 1.07 | 1.17 | 1.1 | 1.41 | 1.02 | 0.799 | 0.933 | 0.876 | 0.751
6 | NCI-H1355 | 0.548 | 0.684 | 0.482 | 0.564 | 0.492 | 0.352 | 0.398 | 0.289 | 0.288 | 0.267 | 0.94 | 0.954 | 0.898 | 0.936 | 1.04 | 0.801 | 0.81 | 0.688 | 0.73 | 0.616
7 | NCI-H1395 | 0.739 | 0.773 | 0.666 | 0.74 | 0.791 | 0.483 | 0.529 | 0.516 | 0.455 | 0.492 | 1.23 |  | 1.23 | 1.13 | 1.05 | 0.385 | 0.39 | 0.372 | 0.385 | 0.41
8 | NCI-H1437 | 0.434 | 0.426 | 0.365 | 0.412 | 0.421 | 0.717 | 0.732 | 0.495 | 0.382 | 0.3 | 1.14 | 1.17 | 1.06 | 1.07 | 1.13 | 1.11 | 1.08 | 1.07 | 1.17 | 1.11
9 | NCI-H1651 | 0.619 | 0.696 | 0.596 | 0.676 | 0.815 | 0.586 | 0.842 | 0.777 | 0.573 | 0.478 | 1.04 | 1.01 | 0.899 | 1.02 | 1.18 | 0.485 | 0.487 | 0.476 | 0.457 | 0.466
10 | NCI-H1666 | 0.651 | 0.678 | 0.598 | 0.595 | 0.624 | 0.785 | 0.82 | 0.742 | 0.595 | 0.676 | 0.875 | 1 | 0.989 | 1.09 | 1.1 | 0.811 | 0.711 | 0.84 | 0.841 | 0.956
11 | NCI-H1734 | 0.262 | 0.246 | 0.278 | 0.277 | 0.245 | 0.506 | 0.554 | 0.578 | 0.368 | 0.266 | 0.759 | 0.83 | 0.846 | 0.807 | 0.842 | 0.558 | 0.619 | 0.52 | 0.576 | 0.269
12 | NCI-H1755 | 0.54 | 0.481 | 0.532 | 0.595 | 0.547 | 0.642 | 0.669 | 0.534 | 0.571 | 0.52 | 1.05 | 1 | 0.974 | 0.998 | 1.07 | 0.442 | 0.407 | 0.469 | 0.399 | 0.303
13 | NCI-H1793 | 0.414 | 0.419 | 0.347 |  | 0.329 | 0.204 | 0.277 | 0.289 | 0.277 | 0.233 | 0.59 | 0.468 | 0.461 |  | 0.46 | 0.461 | 0.593 | 0.508 | 0.394 | 0.549
14 | NCI-H1915 | 0.467 | 0.384 | 0.428 | 0.46 | 0.42 | 0.447 | 0.429 | 0.29 | 0.312 | 0.263 | 0.787 | 0.721 | 0.805 | 0.788 | 0.811 | 0.7 | 0.682 | 0.736 | 0.656 | 0.68
